In article PMC9293909 (Nature Communications, 2022):
Several values for one entry are separate records, joined by “and”; a condition that tells them apart may be missing. Equal values may be shown once.

How the values were obtained:
[1] = test system: postsynaptic A1Rs, CA1 pyramidal cells; assay: Whole-cell patch-clamp, membrane potential of CA1 pyramidal cells; assay type: cell-based, rat
Procedure: (§1) Rats were kept on a 12-hour light-dark cycle with slices made 90 min after entering the light cycle. […] The brain was removed, cut down the midline and the two sides of the brain stuck down to a metal base plate using cyanoacrylate glue. […] Slices were stored at 34 °C for 1–6 h in aCSF (1 mM MgCl2, 2 mM CaCl2) before use.
(§2) A slice was transferred to the recording chamber and perfused at 3 ml min^−1 with aCSF at 32 ± 0.5 °C. Slices were visualised using IR-DIC optics with an Olympus BX151W microscope (Scientifica) and a CCD camera (Hitachi). […] Voltage and current recordings were obtained using an Axon Multiclamp 700B amplifier (Molecular Devices, USA) and digitised at 20 KHz. Data acquisition and analysis was performed using pClamp 10 (Molecular Devices, USA). For voltage-clamp experiments, CA1 pyramidal cells were held at −60 mV. Peptides to interfere with G protein signalling were introduced via the patch pipette into the recorded cell.

[2] = test system: native presynaptic A1Rs, rat hippocampal slices; assay: Extracellular fEPSP recording, inhibition of excitatory synaptic transmission in hippocampal slices; assay type: cell-based
Procedure: as §1
A slice was transferred to the recording chamber, submerged in aCSF and perfused at 4–6 ml min^−1 (32 ± 0.5 °C). The slice was placed on a grid allowing perfusion above and below the tissue and all tubing was gastight (to prevent loss of oxygen). […] Field excitatory postsynaptic potentials (fEPSPs) were evoked with either an isolated pulse stimulator model 2100 (AM Systems, WA) or ISO-Flex (AMPI, Jerusalem, Israel). For fEPSPs a 10–20 min baseline was recorded at a stimulus intensity that gave 40-50% of the maximal response. […] For fEPSP slope, a 1 ms linear region after the fibre volley was measured. Extracellular recordings were made independently on two electrophysiology rigs.
Statistical significance was tested as indicated in the text using paired or unpaired two-tailed t-tests or one-way or two-way ANOVAs with repeated measures (RM) as appropriate. Bonferroni corrections for multiple comparisons were performed. All in vitro cell signalling assay data was analysed using Prism 8.4 (Graphpad software, San Diego, CA), with all concentration-response curves being fitted using a 3 parameter logistic equation to calculate response range and IC50. All cAMP data was normalised to a forskolin concentration-response curve ran in parallel to each assay.

[3] = in vitro; conditions: human, plasma
Procedure: (§3) At the end of incubation at each of the time points (0, 0.5, 1, 1.5, 2 h), acetonitrile was added to the incubation mixture followed by centrifugation. Samples were analysed by HPLC-MS/MS and peak areas were recorded for each analyte. The area of precursor compound remaining after each of the time points relative to the amount remaining at time 0, expressed as a percentage, was calculated. Subsequently, the t1/2 is estimated from the slope of the initial linear range of the logarithmic curve of compound remaining (%) versus time, assuming first-order kinetics.

[4] = Half-life determination in human plasma; conditions: UoBern01 at 1.00E-06 M
Procedure: as §3

[5] = Half-life determination in PBS; assay type: physicochemical; conditions: PBS, pH 7.4
Procedure: […] Samples were analysed by HPLC-MS/MS and corresponding peak areas were recorded for each analyte. The ratio of precursor compound remaining after each time-point relative to the amount present at time 0, expressed as a percentage, is reported as chemical stability.

[6] = Intrinsic clearance by human liver microsomes; conditions: UoBern01 at 1.00E-07 M
[7] = test system: CA1 pyramidal cells (Goa / Gob signalling); assay: Whole-cell voltage-clamp, adenosine-induced outward current with intracellular G protein interfering peptides; assay type: cell-based, rat; conditions: adenosine 10 µM, peptide 100 µM, held at −60 mV
Procedure: as §2
Drugs were made up as stock solutions (1-10 mM) and then diluted in aCSF or saline on the day of use. […] MRS1523 was purchased from Cayman Chemicals (Cambridge Bioscience Ltd., Cambridge UK). […] CA200645 and peptides for interfering with G protein signalling were obtained from Hello Bio (Bristol, UK) and were based on published sequences. […] The scrambled version was […]. […] Peptides were made up as stock solutions (2 mM) and stored at −20 °C. The stock solutions were dissolved in filtered intracellular solution just before use.

[8] = incubation 0 minutes, UoBern01 at 1.00E-06 M
[9] = incubation 60 minutes, UoBern01 at 1.00E-06 M
[10] = incubation 120 minutes, UoBern01 at 1.00E-06 M
[11] = incubation 180 minutes, 1.00E-06 M
[12] = incubation 240 minutes, 1.00E-06 M

CNC(=O)[C@H]1O[C@@H](n2cnc3c(NCc4cccc(I)c4)nc(Cl)nc32)[C@H](O)[C@@H]1O [2-Cl-IB-MECA]
effect on membrane potential ([1]; 1 µM): had no effect on membrane potential

OC[C@H]1O[C@@H](n2cnc3c(N[C@@H]4CCC[C@H]4OCc4ccccc4)ncnc32)[C@H](O)[C@@H]1O [BnOCPA, (2 R,3 R,4 S,5 R)−2-(6-{[(1 R,2 R)−2-benzyloxycyclopentyl]amino}−9H-purin-9-yl)−5-(hydroxymethyl)oxolane-3,4-diol]
time constant of inhibition of synaptic transmission (single exponential) ([2]; 300 nM): 2.2 min

CCNC(=O)[C@H]1O[C@@H](n2cnc3c(N)ncnc32)[C@H](O)[C@@H]1O [NECA, 5′-(N-Ethylcarboxamido) adenosine]
IC50 ([2]; fEPSP, rat hippocampal slices, read-out: IC50 inhibition of synaptic transmission): 8.3 ± 3 nM

CC(C)[N+](C)(CCOC(=O)C1c2ccccc2Oc2ccccc21)C(C)C [Propantheline]
half-life [3]: 46.9 min
2nd / Half-Life [4]: 50.4 min
Mean / Half-Life [4]: 49 min
1st / % Compound Remaining ([4]; incubation 0 minutes): 100%
2nd / % Compound Remaining ([4]; incubation 0 minutes): 100%
Mean / % Compound Remaining ([4]; incubation 0 minutes): 100%
1st / % Compound Remaining ([4]; incubation 30 minutes): 69.6%
2nd / % Compound Remaining ([4]; incubation 30 minutes): 53.9%
Mean / % Compound Remaining ([4]; incubation 30 minutes): 61.7%
1st / % Compound Remaining ([4]; incubation 60 minutes): 44.8%
2nd / % Compound Remaining ([4]; incubation 60 minutes): 36.9%
Mean / % Compound Remaining ([4]; incubation 60 minutes): 40.9%
1st / % Compound Remaining ([4]; incubation 90 minutes): 29.3%
2nd / % Compound Remaining ([4]; incubation 90 minutes): 22.6%
Mean / % Compound Remaining ([4]; incubation 90 minutes): 26%
1st / % Compound Remaining ([4]; incubation 120 minutes): 16.8%
2nd / % Compound Remaining ([4]; incubation 120 minutes): 19.6%
Mean / % Compound Remaining ([4]; incubation 120 minutes): 18.2%
Mean / Half-Life ([5]; UoBern01 at 1.00E-06 M): >120 min
1st / % Compound Remaining [5, 8]: 100%
2nd / % Compound Remaining [5, 8]: 100%
Mean / % Compound Remaining [5, 8]: 100%
1st / % Compound Remaining ([5]; incubation 30 minutes): 95.1%
2nd / % Compound Remaining ([5]; incubation 30 minutes): 97.9%
Mean / % Compound Remaining ([5]; incubation 30 minutes): 96.5%
1st / % Compound Remaining [5, 9]: {129.3} %
2nd / % Compound Remaining [5, 9]: 96.1%
Mean / % Compound Remaining [5, 9]: 96.1%
1st / % Compound Remaining ([5]; incubation 90 minutes): 86.5%
2nd / % Compound Remaining ([5]; incubation 90 minutes): 89.2%
Mean / % Compound Remaining ([5]; incubation 90 minutes): 87.8%
1st / % Compound Remaining [5, 10]: {72.3} %
2nd / % Compound Remaining [5, 10]: 76.6%
Mean / % Compound Remaining [5, 10]: 76.6%
half-life ([5]; read-out: 1st / Half-Life): > 120 min

CCCOc1cc(N)ccc1C(=O)OCCN(CC)CC [Propoxycaine]
half-life [3]: 3.8 min
2nd / Half-Life [4]: 3.4 min
Mean / Half-Life [4]: 4 min
1st / % Compound Remaining ([4]; incubation 0 minutes): 100%
2nd / % Compound Remaining ([4]; incubation 0 minutes): 100%
Mean / % Compound Remaining ([4]; incubation 0 minutes): 100%
1st / % Compound Remaining ([4]; incubation 30 minutes): 0.4%
2nd / % Compound Remaining ([4]; incubation 30 minutes): 0.2%
Mean / % Compound Remaining ([4]; incubation 30 minutes): 0.3%
1st / % Compound Remaining ([4]; incubation 60 minutes): 0.3%
2nd / % Compound Remaining ([4]; incubation 60 minutes): 0.2%
Mean / % Compound Remaining ([4]; incubation 60 minutes): 0.3%
1st / % Compound Remaining ([4]; incubation 90 minutes): 0.3%
2nd / % Compound Remaining ([4]; incubation 90 minutes): 0.5%
Mean / % Compound Remaining ([4]; incubation 90 minutes): 0.4%
1st / % Compound Remaining ([4]; incubation 120 minutes): 0.1%
2nd / % Compound Remaining ([4]; incubation 120 minutes): 0.3%
Mean / % Compound Remaining ([4]; incubation 120 minutes): 0.2%

OC[C@H]1O[C@@H](n2cnc3c(N[C@@H]4CCC[C@H]4OCc4ccccc4)ncnc32)[C@H](O)[C@@H]1O [UoBern01]
Clint [6]: <115.5
Mean / Half-Life [6]: >60 min
1st / % Compound Remaining ([6]; incubation 0 minutes): 100%
2nd / % Compound Remaining ([6]; incubation 0 minutes): 100%
Mean / % Compound Remaining ([6]; incubation 0 minutes): 100%
1st / % Compound Remaining ([6]; incubation 15 minutes): 108.5%
2nd / % Compound Remaining ([6]; incubation 15 minutes): 101.9%
Mean / % Compound Remaining ([6]; incubation 15 minutes): 105.2%
1st / % Compound Remaining ([6]; incubation 30 minutes): 92.9%
2nd / % Compound Remaining ([6]; incubation 30 minutes): 86%
Mean / % Compound Remaining ([6]; incubation 30 minutes): 89.4%
1st / % Compound Remaining ([6]; incubation 45 minutes): 92%
2nd / % Compound Remaining ([6]; incubation 45 minutes): 89.5%
Mean / % Compound Remaining ([6]; incubation 45 minutes): 90.7%
1st / % Compound Remaining ([6]; incubation 60 minutes): 84.1%
2nd / % Compound Remaining ([6]; incubation 60 minutes): 69.7%
Mean / % Compound Remaining ([6]; incubation 60 minutes): 76.9%
1st / Half-Life [4]: >120 min
2nd / Half-Life [4]: >120 min
Mean / Half-Life [4]: >120 min
1st / % Compound Remaining ([4]; incubation 0 minutes): 100%
2nd / % Compound Remaining ([4]; incubation 0 minutes): 100%
Mean / % Compound Remaining ([4]; incubation 0 minutes): 100%
1st / % Compound Remaining ([4]; incubation 30 minutes): 104.2%
2nd / % Compound Remaining ([4]; incubation 30 minutes): {224.0} %
Mean / % Compound Remaining ([4]; incubation 30 minutes): 104.2%
1st / % Compound Remaining ([4]; incubation 60 minutes): 124.2%
2nd / % Compound Remaining ([4]; incubation 60 minutes): 99%
Mean / % Compound Remaining ([4]; incubation 60 minutes): 111.6%
1st / % Compound Remaining ([4]; incubation 90 minutes): 133.3%
2nd / % Compound Remaining ([4]; incubation 90 minutes): 101.7%
Mean / % Compound Remaining ([4]; incubation 90 minutes): 117.5%
1st / % Compound Remaining ([4]; incubation 120 minutes): {142.4} %
2nd / % Compound Remaining ([4]; incubation 120 minutes): 108.4%
Mean / % Compound Remaining ([4]; incubation 120 minutes): 108.4%
2nd / Half-Life ([5]; UoBern01 at 1.00E-06 M): >240 min
Mean / Half-Life ([5]; UoBern01 at 1.00E-06 M): >240 min
1st / % Compound Remaining [5, 8]: 100%
2nd / % Compound Remaining [5, 8]: 100%
Mean / % Compound Remaining [5, 8]: 100%
1st / % Compound Remaining [5, 9]: 100%
2nd / % Compound Remaining [5, 9]: {204.3} %
Mean / % Compound Remaining [5, 9]: 100%
1st / % Compound Remaining [5, 10]: 99.8%
2nd / % Compound Remaining [5, 10]: 105.3%
Mean / % Compound Remaining [5, 10]: 102.5%
1st / % Compound Remaining [5, 11]: 96.7%
2nd / % Compound Remaining [5, 11]: {108.7} %
Mean / % Compound Remaining [5, 11]: 96.7%
1st / % Compound Remaining [5, 12]: 89.5%
2nd / % Compound Remaining [5, 12]: 100.9%
Mean / % Compound Remaining [5, 12]: 95.2%

NCC(CC(=O)O)c1ccc(Cl)cc1 (centres unmarked) [baclofen]
membrane hyperpolarisation ([1]; baclofen 10 µM in the presence of BnOCPA 300 nM): 6.5 ± 0.43 mV
membrane hyperpolarisation ([1]; baclofen in control conditions): 6.3 ± 0.76 mV

LNRGNAYLCIGMG [Goa SCR, scrambled version of the Goa interfering peptide]
adenosine-induced outward current with intracellular peptide [7]: 45.8 pA and 40.3 pA and 52.5 pA and 32 pA and 47 pA and 43.9 pA and 42 pA
adenosine-induced outward current with intracellular peptide ([7]; listed as scrambled Goa peptide): 43.4 ± 2.4 pA
adenosine-induced outward current with intracellular peptide ([7]; mean): 43.36 pA
